For this test, the target named is enzyme 5α-reductase. In words: enzymatic in vitro method described in WO/9413691 (5α-reductase inhibition). Particulars: for IC50: concentration inhibiting by 50% the enzymatic activity, Finasteride as control product; for inhibiting activity on the enzyme 5α-reductase: verbal assessment, compared with Finasteride. The format is biochemical. An excerpt: The three monohydroxylated products obtained by biotransformation of the azasteroid moiety using Penicillium sp. have biological activity on the enzyme 5α-reductase. For this purpose, the enzymatic in vitro method described in WO/9413691, published on June 23, 1994 has been used.

This note sets out measurements from patent EP0922770B1, “A microbiological process for the transformation of 17beta-carboxy substituted 3-oxo-4-azasteroids and the use of such products as inhibitors of the enzyme 5alpha-reductase” (POLI INDUSTRIA CHIMICA S.p.A., priority 1994, dated 1996).

SMILES strings stand for the structures.

The term IC50 denotes the concentration needed to halve the response being measured. Molecule `CC(C)(C)NC(=O)[C@H]1CC[C@H]2[C@@H]3CC[C@H]4NC(=O)C=C[C@]4(C)[C@H]3CC[C@]12C` [Finasteride, reference compound] returned an IC50 of 0.037 µM. This counts as double-digit nanomolar. On to `CC(C)(C)NC(=O)[C@H]1CC[C@H]2[C@@H]3C[C@H](O)C4NC(=O)CC[C@]4(C)[C@H]3CC[C@]12C` (stereo partly drawn) [Product 1, 17β-t-butylcarbamoyl-6a-hydroxy-4-azaandrostan-3-one], for which the IC50 was found to be 0.195 µM and the “inhibiting activity on the enzyme 5α-reductase” value was “poorly active”. On the same counts, the results for `CC(C)(C)NC(=O)[C@H]1C[C@H](O)[C@H]2[C@@H]3CCC4NC(=O)CC[C@]4(C)[C@H]3CC[C@@]21C` (stereo partly drawn) [Product 2, 17β-t-butylcarbamoyl-15a-hydroxy-4-azaandrostan-3-one] are 0.035 µM and “strong inhibiting activity”. Turning to `CC(C)(C)NC(=O)[C@H]1C[C@@H](O)[C@H]2[C@@H]3CCC4NC(=O)CC[C@]4(C)[C@H]3CC[C@@]21C` (stereo partly drawn) [Product 3, 17β-t-butylcarbamoyl-15β-hydroxy-4-azaandrostan-3-one], the midpoint of inhibition, the IC50, lay at 0.035 µM and the “inhibiting activity on the enzyme 5α-reductase” value is “strong inhibiting activity”.
